Patent US20100240029A1, “Cholesterol-Regulating Complex of SIRT1 and LXR and Methods of Use” (Massachusetts Institute of Technology, priority 2006, published 2010)
Like-named read-outs stand apart in the source and are kept apart here. Peptide text beside a SMILES is read from it. * marks the point of attachment. Cbz = O=C(OCc1ccccc1)*

How the values were obtained:
[1] = tested on: mouse ABCA1 promoter (LXRE); test: mouse ABCA1 promoter driven luciferase reporter assay in HEK293T cells; format: cell-based; conditions: for inhibition of 22(R)—HC+9-cisRA-induced luciferase expression, wildtype ABCA1 promoter: 10 mM nicotinamide or 1 μM TSA; for basal activity of control reporter missing the LXRE / induction of luciferase reporter driven by wildtype ABCA1 promoter: 6 h; for basal activity of control reporter missing the LXRE: 10 mM nicotinamide or 25 μM MG132; for induction of luciferase reporter driven by wildtype ABCA1 promoter: with 10 μM 22(R)—HC and 1 μM 9-cisRA, 10 mM nicotinamide, 25 μM MG132 or both
Experimental: The luciferase reporter plasmid pGL3-ABCA1 was created by inserting the −847 to +244 of mouse ABCA1 promoter region into KpnI-XhoI sites of pGL3 vector (Promega, Madison, Wi). pGL3-ABCA1-LXRE, the LXRE mutant version of pGL3-ABCA1, was created by deleting the LXRE from wildtype promoter of mouse ABCA1.
For the luciferase assay, MEFIs or HEK293T cells plated in 24-well plates were transfected with 100 ng of pGL3-ABCA1 or pGL3-ABCA1-LXRE, and 10 ng of pRL-TK (Renilla luciferase; Promega). The cells transfected with wildtype (WT) or LXRE mutant (−LXRE) mouse ABCA1 promoter driven luciferase reporter vectors were treated with 1 μM Trichostatin A (TSA), an inhibitor of class I and II deacetylases, or 10 mM nicotinamide (Nico), or both 10 mM nicotinamide+1 μM TSA. Cells transfected with the LXRE mutant vector were incubated in DMEM with 10% FBS in the absence (solid bars) or presence (open bars) of 10 μM 22(R)—HC and 1 μM 9-cisRA (FIG. 2b). Luciferase activity was then measured by using the Dual-Luciferase Reporter Assay System (Promega) 6 or 24 h later. The final GL (firefly luciferase) activity was normalized with co-expressed RL (Renilla luciferase) activity. The experiments were performed in duplicate and were repeated 3 times.
HEK293T cells transfected with wildtype (WT; FIG. 4g, left panel) or LXRE mutant (−LXRE; FIG. 4g, right panel) mouse ABCA1 promoter driven luciferase reporter vectors were treated with either 10 mM nicotinamide (Nico), 25 μM MG132, or both 10 mM nicotinamide+25 μM MG132, in the absence (solid bars) or presence (open bars) of 10 μM 22(R)—HC and 1 μM 9-cisRA for 6 h. Luciferase activities were measured and normalized as in Example 5.

[2] = through induction of SREBP-1c; cited from earlier work
[3] = plasma and liver lipids of mice after 8-day oral T0901317; format: in vivo, mouse
Experimental: To determine the total cholesterol levels in mouse tissues, SIRT1^−/− mice and control littermates were fasted for four hours from the beginning of the daylight cycle before sacrificing. Tissues were then harvested and weighted. Total cholesterol from liver and testis were extracted and measured by GC as described previously^70, 71. Total lipids including triglycerides were also dissolved into a solution containing 60% butanol, 13% methanol, and 27% Triton X-100, and measured with the enzymatic, colorimetric assay kits from Wako.
2-6 month old SIRT1−/− and control males were fed with T0901317 (10 mg/kg) by oral gavage, plasma were collected before and after feeding for plasma lipid analyses. Tissues were collected after feeding for further analyses. Total RNA from liver of wildtype animals without (black filled bar) or fed with 10 mg/kg T0901317 (black striped bar) and SIRT1^−/− mice without (open bar) or with T0901317 (gray striped bar) were analyzed by real-time PCR. […] However, the induction of these targets in SIRT1^−/− mice was blunted. Total protein lysates were obtained from livers of indicated mice and analyzed for the levels of ABCA1 protein by immunoblotting (FIG. 3c). (As previously observed, ABCA1 proteins comprise multiple bands by western blotting^78.)
Plasma results in FIG. 3, panels d, e, and f represent the same mice before and after 8-days administration of T0901317. […]

LXR targets = test: LXR target mRNAs in livers of mice fed T0901317 (real-time PCR); format: in vivo, mouse; conditions: 10 mg/kg oral gavage, 8 days
Excerpt: Total RNA was isolated from mouse livers, testes, thioglycolate-stimulated peritoneal macrophages, and ovaries by a Qiagen RNeasy mini-kit (Qiagen Inc., Calencia, Ca.). For real-time PCR analysis, cDNA was synthesized by SuperScript III reverse transcriptase (Invitrogen, Carlsbad, Calif.) with random primers. The resulting cDNA was then subjected to PCR analysis with gene-specific primers in the presence of Cybergreen (Qiagen Inc., Calencia, Ca.). Relative abundance of mRNA was obtained by normalization to cyclophilin levels. […] The mRNA levels of ABCA1 were quantified by phosphoimager and normalized against the corresponding actin levels.
To gain further insight into the effect of SIRT1 on LXR function in vivo, wildtype and SIRT1^−/− animals were analyzed for their response to 8-day oral administration of the LXR agonist T0901317 (N-(2,2,2-trifluoro-ethyl)-N-[4-(2,2,2-trifluoro-1-hydroxy-1-trifluoromethyl-ethyl)-phenyl]-benzenesulfonamide)^53.
2-6 month old SIRT1−/− and control males were fed with T0901317 (10 mg/kg) by oral gavage, plasma were collected before and after feeding for plasma lipid analyses. […] Total RNA from liver of wildtype animals without (black filled bar) or fed with 10 mg/kg T0901317 (black striped bar) and SIRT1^−/− mice without (open bar) or with T0901317 (gray striped bar) were analyzed by real-time PCR. […]

THP-1 cells = test: apoAI-mediated [3H]cholesterol efflux from THP-1 cells; format: cell-based, human; conditions: THP-1, 10 mM nicotinamide for 48 h, efflux to 15 μg/ml apoAI for 24 h
Experimental: For the human monocytic cell line THP-1 cells, cells were treated with 10 mM nicotinamide in RPMI1640/10% FBS for 48 h, then cholesterol loaded with 50 μg/ml of LDL and 1 μCi/ml of [^3H]cholesterol in RPMI1640/1% FBS/0.2% BSA medium for 24 h. Cells were washed with PBS and incubated in RPMI 1640/0.2% BSA with or without 15 μg/ml apoAI for 24 h. The medium and cells were then separated, and cells were lysed with 0.2N NaOH. The radioactivity recovered in the medium and cell lysates were measured and the apoAI-mediated cholesterol efflux was calculated as described above.

HA-LXRβ = HA-LXRβ protein level in HEK293T cells by western blotting; format: cell-based, mouse; conditions: 6 h; for levels of HA-LXRβ protein: 1 μM TSA, 10 mM nicotinamide or 25 μM MG132
Experimental: HEK293T cells expressing HA-LXRβ driven by an exogenous CMV promoter were transfected either with pSuper vector, or with a pSuper-SIRT1 RNAi construct. Cells were harvested 3 days after transfection and the levels of HA-LXRβ and SIRT1 were analyzed by western blotting using antibodies to HA and SIRT1. […] Since there was no detectable reduction of LXR mRNA in SIRT1−/− mice (FIG. 3a), SIRT1 regulates LXR protein levels post-transcriptionally.
HEK293T cells expressing HA-LXRβ were treated with either control medium (FIG. 3c, lane 1), or medium with 1 μM TSA (lane 2), 10 mM nicotinamide (lane 3), 25 μM MG132 (carbobenzyloxy-Leu-Leu-Leu-al, a proteasome inhibitor) (lane 4), or 10 mM nicotinamide plus 25 μM MG132 (lane 5) for 6 h. Cells were then harvested and the levels of HA-LXRβ and SIRT1 were analyzed by western blotting using antibodies to HA (upper images) and SIRT1 (middle images). […] Since there was no detectable reduction of LXR's mRNA in SIRT1−/− mice (see Example 9, FIG. 3a), SIRT1 regulates LXR protein levels post-transcriptionally. It is believed that inhibition of SIRT1 activity by nicotinamide increases the protein levels of LXR by interfering with proteasome-mediated LXR degradation.
The basis for the finding that LXR activity is inversely correlated with protein levels was next examined. Since acetylation of lysine residues can block ubiquitination and SIRT1 is a deacetylase, loss of SIRT1 activity might stabilize LXR proteins by increasing the steady state level of LXR acetylation, thus inhibiting the ubiquitin/proteasome degradation pathway.

[4] = tested on: T1, NH2-terminal HA-tagged mouse LXRβ
T1 sequence: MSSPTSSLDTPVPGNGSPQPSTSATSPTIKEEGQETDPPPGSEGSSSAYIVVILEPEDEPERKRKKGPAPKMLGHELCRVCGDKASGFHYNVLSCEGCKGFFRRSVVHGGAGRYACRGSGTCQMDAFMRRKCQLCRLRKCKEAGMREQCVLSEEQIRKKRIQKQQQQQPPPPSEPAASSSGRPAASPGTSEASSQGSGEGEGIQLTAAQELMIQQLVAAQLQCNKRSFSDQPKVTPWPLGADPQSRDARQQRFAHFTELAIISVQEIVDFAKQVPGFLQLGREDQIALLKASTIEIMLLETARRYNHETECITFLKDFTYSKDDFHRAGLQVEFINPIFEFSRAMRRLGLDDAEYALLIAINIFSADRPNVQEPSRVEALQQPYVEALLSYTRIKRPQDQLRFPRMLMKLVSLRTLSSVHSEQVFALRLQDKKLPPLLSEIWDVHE

[5] = molecular target: T2, NH2-terminal HA-tagged mouse LXRβ
T2 chain: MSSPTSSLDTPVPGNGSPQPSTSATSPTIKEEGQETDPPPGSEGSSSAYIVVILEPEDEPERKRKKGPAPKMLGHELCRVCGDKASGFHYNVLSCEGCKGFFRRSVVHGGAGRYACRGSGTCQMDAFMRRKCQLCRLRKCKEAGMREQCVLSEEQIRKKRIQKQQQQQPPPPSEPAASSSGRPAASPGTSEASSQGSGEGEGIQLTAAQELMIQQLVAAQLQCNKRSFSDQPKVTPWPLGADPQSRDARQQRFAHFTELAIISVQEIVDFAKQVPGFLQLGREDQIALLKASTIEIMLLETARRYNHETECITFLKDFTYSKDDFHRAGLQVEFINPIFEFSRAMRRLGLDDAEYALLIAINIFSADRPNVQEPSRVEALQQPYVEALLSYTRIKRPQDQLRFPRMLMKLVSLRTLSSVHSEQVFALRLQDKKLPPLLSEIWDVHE

With CC(/C=C/C(=O)NO)=C\[C@@H](C)C(=O)c1ccc(N(C)C)cc1 [TSA, Trichostatin A] the “inhibition of 22(R)—HC+9-cisRA-induced luciferase expression, wildtype ABCA1 promoter” value [1] was “not inhibited”.

In the case of O=S(=O)(c1ccccc1)N(CC(F)(F)F)c1ccc(C(O)(C(F)(F)F)C(F)(F)F)cc1 [T0901317, N-(2,2,2-trifluoro-ethyl)-N-[4-(2,2,2-trifluoro-1-hydroxy-1-trifluoromethyl-ethyl)-phenyl]-benzenesulfonamide], the “plasma and hepatic triglycerides” value [2] is given as “elevation of plasma and hepatic triglycerides”, the “induction of plasma and hepatic triglyceride accumulation” value ([3]; SIRT1−/− vs wildtype mice, 10 mg/kg oral, 8 days) is given as “reduced response” and the “plasma cholesterol levels after feeding” value ([3]; SIRT1−/− vs wildtype treated mice, especially HDL size particles) is given as “Lower plasma cholesterol levels”. For the same molecule, the “induction of LXR targets SREBP-1c, LPL and ABCA1 in liver” value (LXR targets; SIRT1−/− mice) was “blunted” and the “expression of LXR targets SREBP-1c, LPL and ABCA1 at the RNA level in liver” value (LXR targets; wildtype mice) was “significantly induced”.

For NC(=O)c1cccnc1 [nicotinamide], the “inhibition of 22(R)—HC+9-cisRA-induced luciferase expression, wildtype ABCA1 promoter” value [1] was 50%, the “basal activity of control reporter missing the LXRE” value [1] was “not altered” and the “induction of luciferase reporter driven by wildtype ABCA1 promoter” value [1] was “blunted the induction”. The “suppression of apoAI-mediated [3H]cholesterol efflux” value (THP-1 cells) was “roughly three-fold” and the “levels of HA-LXRβ protein” value (HA-LXRβ) was “elevated levels”.

For CC(C)C[C@@H](C=O)NC(=O)[C@H](CC(C)C)NC(=O)[C@H](CC(C)C)NC(=O)OCc1ccccc1 [MG132, carbobenzyloxy-Leu-Leu-Leu-al] (Cbz-Leu-Leu-Leu-aldehyde), the “basal activity of control reporter missing the LXRE” value [1] was “not altered”, the “induction of luciferase reporter driven by wildtype ABCA1 promoter” value [1] was “inhibited the reporter to the same extent as nicotinamide” and the “levels of HA-LXRβ protein” value (HA-LXRβ) was “increase the steady state levels of LXR”. For the same molecule, the “levels of HA-LXRβ protein when SIRT1 is inhibited by nicotinamide” value (HA-LXRβ; 25 μM MG132 plus 10 mM nicotinamide (lane 4 vs. lane 5)) was “not when SIRT1 is inhibited by nicotinamide”.

With “human SIRT1 H355Y, inactive deacetylase mutant” the “amount of ubiquitin-conjugated LXR (anti-HA immunoprecipitation, western blot with anti-ubiquitin)” value [4] was “but not the inactive mutant hSIRT1HY increased the amount of ubiquitin-conjugated LXR in transfected HEK293T cells”.

B1: human SIRT1 protein (protein)
chain: MADEAALALQPGGSPSAAGADREAASSPAGEPLRKRPRRDGPGLERSPGEPGGAAPEREVPAAARGCPGAAAAALWREAEAEAAAAGGEQEAQATAAAGEGDNGPGLQGPSREPPLADNLYDEDDDDEGEEEEEAAAAAIGYRDNLLFGDEIITNGFHSCESDEEDRASHASSSDWTPRPRIGPYTFVQQHLMIGTDPRTILKDLLPETIPPPELDDMTLWQIVINILSEPPKRKKRKDINTIEDAVKLLQECKKIIVLTGAGVSVSCGIPDFRSRDGIYARLAVDFPDLPDPQAMFDIEYFRKDPRPFFKFAKEIYPGQFQPSLCHKFIALSDKEGKLLRNYTQNIDTLEQVAGIQRIIQCHGSFATASCLICKYKVDCEAVRGDIFNQVVPRCPRCPADEPLAIMKPEIVFFGENLPEQFHRAMKYDKDEVDLLIVIGSSLKVRPVALIPSSIPHEVPQILINREPLPHLHFDVELLGDCDVIINELCHRLGGEYAKLCCNPVKLSEITEKPPRTQKELAYLSELPPTPLHVSEDSSSPERTSPPDSSVIVTLLDQAAKSNDDLDVSESKGCMEEKPQEVQTSRNVESIAEQMENPDLKNVGSSTGEKNERTSVAGTVRKCWPNRVAKEQISRRLDGNQYLFLPPNRYIFHGAEVYSDSEDDVLSSSSCGSNSDSGTCQSPSLEEPMEDESEIEEFYNGLEDEPDVPERAGGAGFGTDGDDQEAINEAISVKQEVTDMNYPSNKS
With B1 the “amount of ubiquitin-conjugated LXR (anti-HA immunoprecipitation, western blot with anti-ubiquitin)” value [5] was “expression of an active SIRT1 transgene (hSIRT1) but not the inactive mutant hSIRT1HY increased the amount of ubiquitin-conjugated LXR in transfected HEK293T cells”.
